Consider 21 compounds from patent US7355055B2, “Compounds for treatment of lipase-mediated diseases” (Reliance Life Sciences Pvt. Ltd., priority 2005, dated 2008).

The structures appear in SMILES notation. Counter-ions that a name gives are not always drawn.

Data set [1] addresses T1, Pancreatic Lipase (Sus scrofa, UniProt P00591).
T1 construct: purchased Sigma L-3126
T1 sequence (P00591 1-450): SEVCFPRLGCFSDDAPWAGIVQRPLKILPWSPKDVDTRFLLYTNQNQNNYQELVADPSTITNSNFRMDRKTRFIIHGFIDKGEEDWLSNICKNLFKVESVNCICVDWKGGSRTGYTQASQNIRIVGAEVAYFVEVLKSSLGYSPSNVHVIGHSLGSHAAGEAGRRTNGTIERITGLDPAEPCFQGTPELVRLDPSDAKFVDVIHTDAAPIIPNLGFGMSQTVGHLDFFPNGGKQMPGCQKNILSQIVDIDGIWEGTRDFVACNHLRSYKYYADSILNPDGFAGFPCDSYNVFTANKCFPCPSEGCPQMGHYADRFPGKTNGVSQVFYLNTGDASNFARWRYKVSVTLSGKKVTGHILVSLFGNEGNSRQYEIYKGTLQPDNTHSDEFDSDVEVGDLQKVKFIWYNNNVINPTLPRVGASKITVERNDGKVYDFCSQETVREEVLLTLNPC
Nature of the data set: Pancreatic lipase inhibition assay (p-nitro phenol palmitate substrate, 96-well). Format: biochemical. To be noted: for IC50: dose range 6.25 μM-200 μM, interpolated by linear regression; for inhibition at 100 µM / inhibition at 200 µM: pancreatic lipase, 37° C., OD 405 nm; for inhibition at 100 µM: compound 100 μM; for inhibition at 200 µM: compound 200 μM. As for the experimental part:
Preparation of test samples: Structures #2-#19 were dissolved in 1 mL DMSO to obtain a 10 mM stock solution, and were vortexed to dissolution and stored at 4° C. The various concentration of working samples were prepared in 0.2 M phosphate buffer, pH-8.0. This sample was used as test sample for all further assays.
Lipase assay: Lipase assay was performed by method described by Winkler and Stuckmann, 1979, with modification. (Winkler, U. K. & Stuckmann, M. Glycogen, hyaluronate, and some other polysaccharides greatly enhance the formation of exolipase by Serratia marcescens. J. Bacteriol. 138: 663-670 (1979)) Assay was designed, using a 96-well format. The substrate used in this assay was p-nitro phenol palmitate (Sigma, Cat No-N-2752). 4.5 mg of p-nitro phenol palmitate was dissolved in 200 μl of N,N-dimethyl formamide (Sigma, Cat No, D-4551) and volume made up to 10 ml with 0.1 M pH 8.0 phosphate buffer. Pancreatic Lipase (Sigma, Cat No. L-3126) sample was prepared by dissolving the enzyme in 0.1M phosphate buffer at a concentration of 5 mg/ml. The reaction mixture consisted of 150 μl substrate solution; 40 μl phosphate buffer (pH 8.0, 0.2 M) and 10 μl lipase solution. The reaction mixture was incubated at 37° C. and optical density was measured at 405 nm after incubation. Enzyme activity was presented in the form of international unit (IU).
Lipase activity: One enzyme unit of lipase is defined as that quantity releasing 1 nm of free phenol from the substrate (p-nitro phenol palmitate) per min per ml under the standard assay condition (Winkler and Stuckmann, 1979; Yadav R P, Saxena R K, Gupta R. Davidson W S., Purification and characterization of a region-specific lipase from Aspergillus terreus. Biotechnol. Appl. Biochem. (1998) 28, (243-249)). It is derived from standard graph of p-nitro phenol (Sigma, 104-8).
Lipase inhibition assay: Enzyme inhibition assay was performed in a dose dependent manner. The concentration of the synthetic analogs checked were 100 μM & 200 μM. The assay was similar to assay described above except 40 μl of test sample was used instead of phosphate buffer in control. Optical density was measured at 0 hr and following incubation at 37° C.
Enzyme Inhibition: Enzyme inhibition was presented in the term of relative activity and percentage inhibition simply on the basis of change in international unit (IU).
Preparation of test samples: Synthetic analogues were dissolved in 1 ml DMSO to obtain a 10 mM stock solution. The samples were vortexed to dissolution and stored at 4° C. The various concentration of working samples were prepared in O.2 M phosphate buffer, pH-8.0. This sample was used as test sample for all further assays.
Lipase inhibition assay: Enzyme inhibition assay was performed in a dose dependent manner. The concentration of the synthetic analogs checked were 6.25 μM-200 μM. The assay was similar to assay described above except 40 μl of test sample was used instead of phosphate buffer in control. Optical density was measured at 0 hr and following incubation at 37° C. The enzyme activity was measured in terms of international unit (IU).
Lipase activity: One enzyme unit of lipase is defined as that quantity releasing 1 nm of free phenol from the substrate (p-nitro phenol palmitate)/min per ml under standard assay conditions. It is derived from standard graph of p-nitro phenol (Sigma, 104-8)
Percent Inhibition: Enzyme inhibition was presented in the term of % inhibition simply on the basis of change in international unit (IU).
The value of IC50 was derived from linear regression. The value derived is based on interpolated data.

What is called melting point is the temperature, or range, at which the solid turns liquid. For the compound `CCCCCCCCCCCC1=C(OC(=O)c2ccccc2)C(=O)C=C(OC(=O)c2ccccc2)C1=O` (as salt: Na) [Structure #15, 2,5-bis-(phenylcarbonyloxy)-3-undecyl-1,4-benzoquinone], the melting point was in the range of 98.2 to 99.6 °C.
For orientation: IC50 means the concentration needed to halve the response being measured. What is called inhibition is how much of the control response was suppressed. On to `CCCCCCCCCCCC1=C(OC(=O)c2cccc(Cl)c2)C(=O)C=C(OC(=O)c2cccc(Cl)c2)C1=O` [Structure #7, 2,5-bis-(3-chlorophenylcarbonyloxy)-3-undecyl-1,4-benzoquinone], for which, in data set [1], the concentration for half-maximal inhibition (IC50) was found to be 16.7 µM, the inhibition at 100 µM was determined as 100% and the inhibition at 200 µM was determined as 100%.
`CCCCCCCCCCCC1=C(OC(=O)c2ccccc2Cl)C(=O)C=C(OC(=O)c2ccccc2Cl)C1=O` [Structure #8, 2,5-bis-(2-chlorophenylcarbonyloxy)-3-undecyl-1,4-benzoquinone]: in data set [1], the midpoint of inhibition, the IC50, lay at 20.6 µM; 100 µM produced 100% inhibition; testing at 200 µM gave an inhibition of 100%.
In data set [1], `CCCCCCCCCCCC1=C(O)C(=O)C=C(O)C1=O` [Structure #20, 2,5-Dihydroxy-3-undecyl-p-benzoquinone, reference compound] showed an inhibition at 100 µM of 67.9% and an inhibition at 200 µM of 69.5%.
As to `CCCCCCCCCCCC1=C(OC(=O)c2ccc(F)cc2)C(=O)C=C(OC(=O)c2ccc(F)cc2)C1=O` [Structure #16, 2,5-bis-(4-fluorophenylcarbonyloxy)-3-undecyl-1,4-benzoquinone], in data set [1], 72.8 µM corresponded to half-maximal inhibition (IC50), the inhibition at 100 µM turned out to be 89.5% and at 200 µM the inhibition was 100%.
Regarding `CCCCCCCCCCCC1=C(OC(=O)c2cccc(OC)c2)C(=O)C=C(OC(=O)c2cccc(OC)c2)C1=O` (as salt: Na) [Structure #17, 2,5-bis-(3-methoxyphenylcarbonyloxy)-3-undecyl-1,4-benzoquinone], the melting point was in the range of 77.1 to 78.6 °C.
`CCCCCCCCCCCC1=C(OC(=O)c2ccc(OC)cc2)C(=O)C=C(OC(=O)c2ccc(OC)cc2)C1=O` [Structure #18, 2,5-bis-(4-methoxyphenylcarbonyloxy)-3-undecyl-1,4-benzoquinone]: in data set [1], it took 94.2 µM to reach half-maximal inhibition (IC50), the inhibition at 100 µM was 55.6% and the inhibition at 200 µM amounted to 94.1%.
In data set [1], `CCCCCCCCCCCC1=C(OC(=O)c2cccc(C)c2)C(=O)C=C(OC(=O)c2cccc(C)c2)C1=O` [Structure #13, 2,5-bis-(3-methylphenylcarbonyloxy)-3-undecyl-1,4-benzoquinone] registered an IC50 of 44.7 µM, an inhibition at 100 µM of 100% and an inhibition at 200 µM of 100%.
Consider `CCCCCCCCCCCC1=C(OC(=O)c2ccc(C(C)(C)C)cc2)C(=O)C=C(OC(=O)c2ccc(C(C)(C)C)cc2)C1=O` [Structure #3, 2,5-bis-(4-tert-butylphenylcarbonyloxy)-3-undecyl-1,4-benzoquinone], for which, in data set [1], the IC50 is < 6.25 µM, the inhibition at 100 µM came out at 99.5% and at 200 µM the inhibition was 99.2%.
`CCCCCCCCCCCC1=C(OC(=O)c2ccc(C)cc2)C(=O)C=C(OC(=O)c2ccc(C)cc2)C1=O` (as salt: Na) [Structure #12, 2,5-bis-(4-methylphenylcarbonyloxy)-3-undecyl-1,4-benzoquinone] yielded a melting point of 94.8 to 96 °C.
In data set [1], `CCCCCCCCCCCC1=C(OC(=O)c2cccc(Br)c2)C(=O)C=C(OC(=O)c2cccc(Br)c2)C1=O` [Structure #6, 2,5-bis-(3-bromophenylcarbonyloxy)-3-undecyl-1,4-benzoquinone] showed a half-maximal inhibitory concentration (IC50) of 13.5 µM, an inhibition at 100 µM of 100% and an inhibition at 200 µM of 100%.
In data set [1], `CCCCCCCCCCCC1=C(OC(=O)c2ccc(Cl)cc2)C(=O)C=C(OC(=O)c2ccc(Cl)cc2)C1=O` [Structure #9, 2,5-bis-(4-chlorophenylcarbonyloxy)-3-undecyl-1,4-benzoquinone] registered a 50% inhibitory concentration (IC50) of 22.8 µM, an inhibition at 100 µM of 98.4% and an inhibition at 200 µM of 100%.
The like results for `CCCCCCCCCCCC1=C(OC(=O)c2ccccc2I)C(=O)C=C(OC(=O)c2ccccc2I)C1=O` [Structure #19, 2,5-bis-(2-iodophenylcarbonyloxy)-3-undecyl-1,4-benzoquinone] were, in that order, 129 µM, 29.2% and 100%.
The like results for `CCCCCCCCCCCC1=C(OC(=O)c2ccc(C)cc2)C(=O)C=C(OC(=O)c2ccc(C)cc2)C1=O` [Structure #12, 2,5-bis-(4-methylphenylcarbonyloxy)-3-undecyl-1,4-benzoquinone] were, in that order, 41.3 µM, 88.5% and 99.1%.
With `CCCCCCCCCCCC1=C(OC(=O)c2cccc(C)c2)C(=O)C=C(OC(=O)c2cccc(C)c2)C1=O` (as salt: Na) [Structure #13, 2,5-bis-(3-methylphenylcarbonyloxy)-3-undecyl-1,4-benzoquinone], the melting point fell in the range of 80.4 to 81.7 °C.
Still for that read-out and setting: then `CCCCCCCCCCCC1=C(OC(=O)c2ccc(OC)cc2)C(=O)C=C(OC(=O)c2ccc(OC)cc2)C1=O` (as salt: Na) [Structure #18, 2,5-bis-(4-methoxyphenylcarbonyloxy)-3-undecyl-1,4-benzoquinone], with 99.2 to 100.5 °C.
Take `CCCCCCCCCCCC1=C(OC(=O)c2ccccc2Br)C(=O)C=C(OC(=O)c2ccccc2Br)C1=O` [Structure #5, 2,5-bis-(2-bromophenylcarbonyloxy)-3-undecyl-1,4-benzoquinone]: in data set [1], 11 µM corresponded to half-maximal inhibition (IC50), 100 µM produced 100% inhibition and the inhibition at 200 µM amounted to 100%.
Consider `CCCCCCCCCCCC1=C(OC(=O)c2ccccc2[N+](=O)[O-])C(=O)C=C(OC(=O)c2ccccc2[N+](=O)[O-])C1=O` [Structure #14, 2,5-bis-(2-nitrophenylcarbonyloxy)-3-undecyl-1,4-benzoquinone], for which, in data set [1], the concentration for half-maximal inhibition (IC50) was found to be 45.3 µM, the inhibition at 100 µM is 65.9% and the inhibition at 200 µM was 61.3%.
In data set [1], `CCCCCCCCCCCC1=C(OC(=O)c2ccccc2)C(=O)C=C(OC(=O)c2ccccc2)C1=O` [Structure #15, 2,5-bis-(phenylcarbonyloxy)-3-undecyl-1,4-benzoquinone] showed an IC50 of 55.6 µM, an inhibition at 100 µM of 100% and an inhibition at 200 µM of 100%.
In data set [1], `CCCCCCCCCCCC1=C(OC(=O)c2ccc(Br)cc2)C(=O)C=C(OC(=O)c2ccc(Br)cc2)C1=O` [Structure #10, 2,5-bis-(4-bromophenylcarbonyloxy)-3-undecyl-1,4-benzoquinone] came in with an IC50 of 23.7 µM, an inhibition at 100 µM of 87.5% and an inhibition at 200 µM of 97%.
In data set [1], `CCCCCCCCCCCC1=C(OC(=O)c2cccc(OC)c2)C(=O)C=C(OC(=O)c2cccc(OC)c2)C1=O` [Structure #17, 2,5-bis-(3-methoxyphenylcarbonyloxy)-3-undecyl-1,4-benzoquinone] displayed a half-inhibitory concentration (IC50) of 81.9 µM, an inhibition at 100 µM of 78.3% and an inhibition at 200 µM of 96.5%.
